Experimental data from PubChem BioAssay (NCI).
Several values for one entry are separate records, joined by “and”; a condition that tells them apart may be missing. Equal values may be shown once.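 Results reflect a 48-hour exposure of cells in 96-well plates to compound at five concentrations. The concentration for 50% growth inhibition is given as GI50. The concentration for full growth arrest is given as TGI.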

Experiments:
Assay in all cases: growth of human tumour cells (NCI), 48 h
786-0 renal = system: 786-0 renal
LOX IMVI melanoma = system: LOX IMVI melanoma
DMS 273 small cell lung = system: DMS 273 small cell lung
CCRF-CEM leukemia = system: CCRF-CEM leukemia
A549 NSCLC = system: A549 NSCLC
NCI-H23 lung = system: NCI-H23 lung
CAKI-1 renal = system: CAKI-1 renal
DU-145 prostate = system: DU-145 prostate
T-47D breast = system: T-47D breast
HOP-18 NSCLC = system: HOP-18 NSCLC

| Compound | TGI (786-0 renal) | TGI (LOX IMVI melanoma) [µM] | TGI (DMS 273 small cell lung) [µM] | TGI (CCRF-CEM leukemia) [µM] | TGI (A549 NSCLC) [µM] | TGI (NCI-H23 lung) [µM] | TGI (CAKI-1 renal) [µM] | GI50 (DU-145 prostate) [µM] | TGI (DU-145 prostate) [µM] | GI50 (786-0 renal) [µM] | GI50 (LOX IMVI melanoma) [µM] | TGI (T-47D breast) [µM] | GI50 (CCRF-CEM leukemia) [µM] | GI50 (A549 NSCLC) [µM] | GI50 (CAKI-1 renal) [µM] | TGI (HOP-18 NSCLC) [µM] |
| --- | --- | --- | --- | --- | --- | --- | --- | --- | --- | --- | --- | --- | --- | --- | --- | --- |
| CC(C)(C)OP(=O)(OC(C)(C)C)C(O)c1ccc(/C=C(\C#N)C(N)=O)cc1 (configuration not stated) | > 100 µM | > 100 | > 100 | > 100 | > 100 | > 100 | > 100 | – | – | – | – | – | – | – | – | – |
| CCCCCCCCCC[C@@H](O)[C@@H]1CC[C@@H]([C@@H]2CC[C@@H]([C@@H](O)CCCCCCCCCC[C@H](O)CC3=CC(C)OC3=O)O2)O1 (some centres not stated) | 7.95 µM and 12.1 µM | – | 13.5 | – | 38.5 | – | > 65.3 | 23.5 | > 100 | 2.49 | 4.26 | 40.4 | 2.78 | 3.05 | 3.62 | – |
| S=c1o[nH]c(-c2ccccc2)c1C=Nc1ccccc1 | > 100 µM | > 100 | > 100 | > 100 | > 100 | > 100 | > 100 | – | – | – | – | – | – | – | – | – |
| COC(=O)c1cccc2c3ccccc3c3ccccc3c12 | > 100 µM | 81 | > 100 | 72.8 | > 100 | 54.7 | > 100 | – | – | – | – | – | – | – | – | > 100 |
| CCCCCCCCOCC(O)CO (configuration not stated) | > 100 µM | > 100 | > 100 | 65 | > 100 | > 100 | > 100 | – | – | – | – | – | – | – | – | > 100 |
| CC1=CC(C)(c2c[nH]c3ccccc23)CC(C)(C)c2c1[nH]c1ccccc21 (configuration not stated) | 27.1 µM | 31.5 | – | 31.7 | 28.3 | 28.5 | – | – | – | – | – | – | – | – | – | > 100 |
| CC1(C)CCCC2(C)C3C(O)CC2(C)C(O)C31 (configuration not stated) | 0.156 µM | > 100 | – | > 100 | > 100 | > 100 | – | – | – | – | – | – | – | – | – | > 100 |
| N#Cc1c(-c2ccccc2)cc(-c2ccc(N)cc2)[nH]c1=O | > 100 µM | > 100 | > 100 | > 100 | > 100 | > 100 | – | – | – | – | – | – | – | – | – | > 100 |
| Cc1ccccc1NC(=O)/C=N/O | > 100 µM | > 100 | > 100 | – | > 100 | > 100 | > 100 | – | – | – | – | – | – | – | – | > 100 |
| Cc1ccc(S(=O)(=O)N/N=C(\c2nc3ccc([N+](=O)[O-])cc3[nH]c2=O)C(O)c2ccc([N+](=O)[O-])cc2)cc1 (configuration not stated) | > 100 µM | > 100 | > 100 | > 100 | > 100 | > 100 | > 100 | – | – | – | – | – | – | – | – | – |
| Nc1ccc(-c2cc(C(=O)Nc3nccs3)[nH]c(=S)n2)cc1 | > 100 µM | > 100 | – | > 100 | > 100 | > 100 | > 100 | – | – | – | – | – | – | – | – | > 100 |
| O=C1C(=C2CCCC2)CCC1CN1CCCCC1 (configuration not stated) | 26.4 µM | – | – | 36.6 | > 100 | 36.4 | – | – | – | – | – | – | – | – | – | 28.7 |
| CCCCC(C)/C=C/C(=O)C1=C(O)/C(=C/C(=O)O)OC1=O (configuration not stated) | > 100 µM | > 100 | > 100 | > 100 | > 100 | > 100 | – | – | – | – | – | – | – | – | – | > 100 |
| O=C1CC(c2c(-c3ccccc3)[nH]c3ccccc23)C(=O)N1c1ccccc1 (configuration not stated) | > 100 µM | – | > 100 | > 100 | > 100 | > 100 | > 100 | – | – | – | – | – | – | – | – | – |
| Cc1ccc(S(=O)(=O)NC(=O)NCCc2ccccc2)cc1 | > 100 µM | > 100 | – | > 100 | > 100 | > 100 | > 100 | – | – | – | – | – | – | – | – | > 100 |
